Data: ChEMBL document CHEMBL5370550, “Structure-guided optimization of adenosine mimetics as selective and potent inhibitors of coronavirus nsp14 N7-methyltransferases” (Eur J Med Chem, 2023)
Active and inactive are the calls of the source. The calls are words filed in the database; no cut-off is given here.

Columns and labels:
[1] = target: Replicase polyprotein 1ab (Severe acute respiratory syndrome coronavirus 2, UniProt P0DTD1)
[2] = target: Replicase polyprotein 1ab (Severe acute respiratory syndrome-related coronavirus) (UniProt P0C6X7); conditions: dose 5.0 µM, time 30.0 min
[3] = target: Replicase polyprotein 1ab (Severe acute respiratory syndrome coronavirus 2) (UniProt P0DTD1); conditions: dose 5.0 µM, time 30.0 min, values are per cent of control
[4] = target: Nonstructural protein 5 (Dengue virus) (UniProt V5TFZ2); conditions: dengue virus type 3; dose 5.0 µM, time 30.0 min
[5] = target: T1, mRNA cap guanine-N(7) methyltransferase (Homo sapiens, UniProt O43148); conditions: dose 5.0 µM, time 30.0 min
T1 sequence (O43148 whole entry): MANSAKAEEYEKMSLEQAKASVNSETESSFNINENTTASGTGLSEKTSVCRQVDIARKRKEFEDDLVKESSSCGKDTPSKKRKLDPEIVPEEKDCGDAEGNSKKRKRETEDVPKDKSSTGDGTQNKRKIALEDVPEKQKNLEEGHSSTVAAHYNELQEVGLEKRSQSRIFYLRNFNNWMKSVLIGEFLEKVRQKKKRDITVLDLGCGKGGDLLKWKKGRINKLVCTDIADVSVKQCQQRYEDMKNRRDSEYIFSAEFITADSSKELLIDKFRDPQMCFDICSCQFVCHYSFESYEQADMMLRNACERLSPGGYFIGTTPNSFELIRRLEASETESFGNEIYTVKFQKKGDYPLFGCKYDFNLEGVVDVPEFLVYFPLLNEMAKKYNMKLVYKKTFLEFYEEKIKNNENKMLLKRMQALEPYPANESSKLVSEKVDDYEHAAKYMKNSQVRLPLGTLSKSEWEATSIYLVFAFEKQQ

[6] = Cytotoxicity against Green monkey VeroE6/TMPRSS2 cells assessed as reduction in cell viability upto 10 uM by CellTiter Blue assay; format: toxicity, cell-based; conditions: chlorocebus sabaeus, veroe6/tmprss2, 10 µM
SARS-CoV-2 = assay: Antiviral activity against SARS-CoV-2 B.1 infected in Green monkey VeroE6/TMPRSS2 cells assessed as viral replication inhibition at 10 uM incubated for 2 days by qRT-PCR analysis relative to control; format: functional, Severe acute respiratory syndrome coronavirus 2; parameters: scale not given: the % may be the effect or the level left
[7] = target: Replicase polyprotein 1ab (Severe acute respiratory syndrome-related coronavirus, UniProt P0C6X7)
[8] = system: Severe acute respiratory syndrome coronavirus 2; conditions: time 30.0 min
Nonstructural protein 5 = Nonstructural protein 5 (Dengue virus, UniProt V5TFZ2); parameters: species or system dengue virus type 3
[9] = target: T1, mRNA cap guanine-N(7) methyltransferase
[10] = Severe acute respiratory syndrome coronavirus 2, time 2.0 day

SMILES	IC50 [1]	inhibition [2]	residual activity [3]	inhibition [4]	inhibition [5]	Activity [6]	Activity (SARS-CoV-2; time 2 day)	IC50 [7]	inhibition [8]	IC50 (Nonstructural protein 5)	IC50 [9]	Activity (SARS-CoV-2; [10])
CCN(C[C@H]1O[C@@H](n2cnc3c(NC)ncnc32)[C@H](O)[C@@H]1O)S(=O)(=O)c1ccc(Br)c([N+](=O)[O-])c1	383 nM	29.5%	15.2%	98%	inactive	–	–	–	–	–	–	–
Cc1ccc(S(=O)(=O)N(C)C[C@H]2O[C@@H](n3cc(C#Cc4cnc5ccccc5c4)c4c(N)ncnc43)[C@H](O)[C@@H]2O)cc1Cl	2.07 nM	1.5%	3.2%	97.7%	90.7%	Non-Toxic	50%	–	–	–	–	–
CCN(C[C@H]1O[C@@H](n2cnc3c(N)ncnc32)[C@H](O)[C@@H]1O)S(=O)(=O)c1ccc(OC)c(C#N)c1	–	4.2%	–	inactive	69.5%	–	–	–	–	–	–	–
CNc1ncnc2c1ncn2[C@@H]1O[C@H](CNS(=O)(=O)c2ccc(C)c([N+](=O)[O-])c2)[C@@H](O)[C@H]1O	2850 nM	66.4%	38.7%	76.6%	66.4%	–	–	–	–	–	–	–
COc1ccc(S(=O)(=O)N(C)C[C@H]2O[C@@H](n3cc(C#Cc4cnc5ccccc5c4)c4c(N)ncnc43)[C@H](O)[C@@H]2O)cc1C#N	0.72 nM	1.4%	0%	–	53%	Non-Toxic	50%	0.141 nM	inactive	Not Active	165 µM	–
CCN(C[C@H]1O[C@@H](n2cnc3c(=O)[nH]cnc32)[C@H](O)[C@@H]1O)S(=O)(=O)c1ccc(OC)c(C#N)c1	4000 nM	48.1%	30.7%	89.8%	88.9%	–	–	–	–	–	–	–
Cc1cc(S(=O)(=O)NC[C@H]2O[C@@H](n3cnc4c(=O)[nH]cnc43)[C@H](O)[C@@H]2O)ccc1Cl	–	71.8%	87.6%	inactive	inactive	–	–	–	–	–	–	–
CN(C[C@H]1O[C@@H](n2cc(C#Cc3ccccc3)c3c(N)ncnc32)[C@H](O)[C@@H]1O)S(=O)(=O)c1ccc(Br)c([N+](=O)[O-])c1	17.3 nM	3.3%	5%	96.9%	95.9%	Non-Toxic	–	–	–	–	–	inactive
COc1ccc(S(=O)(=O)NC[C@H]2O[C@@H](n3cnc4c(=O)[nH]cnc43)[C@H](O)[C@@H]2O)cc1C#N	–	98.4%	86%	inactive	inactive	–	–	–	–	–	–	–
CCN(C[C@H]1O[C@@H](n2cnc3c(NC)ncnc32)[C@H](O)[C@@H]1O)S(=O)(=O)c1ccc(OC)c(C#N)c1	62 nM	4.3%	4.2%	–	55.9%	–	–	51.7 nM	–	Not Active	16.1 µM	–
Cc1ccc(S(=O)(=O)N(C)C[C@H]2O[C@@H](n3cc(C#Cc4cnc5ccccc5c4)c4c(N)ncnc43)[C@H](O)[C@@H]2O)cc1[N+](=O)[O-]	2.1 nM	1.9%	4.2%	96%	86.7%	Non-Toxic	50%	–	–	–	–	–
COc1ccc(S(=O)(=O)N(C)C[C@H]2O[C@@H](n3cc(C#Cc4cnc5ccccc5c4)c4c(N)ncnc43)[C@H](O)[C@@H]2O)cc1[N+](=O)[O-]	1.3 nM	0.8%	0%	inactive	49.9%	Non-Toxic	50%	–	–	–	–	–
CCN(C[C@H]1O[C@@H](n2cnc3c(NC)ncnc32)[C@H](O)[C@@H]1O)S(=O)(=O)c1ccc(OC)c([N+](=O)[O-])c1	274 nM	16.4%	10.3%	90%	73.3%	–	–	–	–	–	–	–
CNc1ncnc2c1ncn2[C@@H]1O[C@H](CNS(=O)(=O)c2ccc(OC)c([N+](=O)[O-])c2)[C@@H](O)[C@H]1O	573 nM	41.9%	31.5%	inactive	inactive	–	–	–	–	–	–	–
CNc1ncnc2c1ncn2[C@@H]1O[C@H](CNS(=O)(=O)c2ccc(C)c(Cl)c2)[C@@H](O)[C@H]1O	2180 nM	53.5%	45.4%	inactive	92%	–	–	–	–	–	–	–
CNc1ncnc2c1ncn2[C@@H]1O[C@H](CNS(=O)(=O)c2ccc(OC)c(C#N)c2)[C@@H](O)[C@H]1O	468 nM	45.1%	25.4%	–	inactive	–	–	3990 nM	inactive	Not Active	56.2 µM	–
COc1ccc(S(=O)(=O)NC[C@H]2O[C@@H](n3cnc4c(=O)[nH]cnc43)[C@H](O)[C@@H]2O)cc1[N+](=O)[O-]	–	91.7%	93.6%	inactive	inactive	–	–	–	–	–	–	–
Cc1ccc(S(=O)(=O)N(C)C[C@H]2O[C@@H](n3cc(C#Cc4ccccc4)c4c(N)ncnc43)[C@H](O)[C@@H]2O)cc1Cl	25.6 nM	2.4%	7%	94.8%	inactive	Non-Toxic	–	–	–	–	–	inactive
CCN(C[C@H]1O[C@@H](n2cnc3c(=O)[nH]cnc32)[C@H](O)[C@@H]1O)S(=O)(=O)c1ccc(OC)c([N+](=O)[O-])c1	–	69.8%	56.4%	86.4%	inactive	–	–	–	–	–	–	–
COc1ccc(S(=O)(=O)N(C)C[C@H]2O[C@@H](n3cc(C#Cc4ccccc4)c4c(N)ncnc43)[C@H](O)[C@@H]2O)cc1C#N	1.2 nM	1%	2.4%	–	inactive	Non-Toxic	–	0.8 nM	inactive	Not Active	56.5 µM	inactive
CNc1ncnc2c1ncn2[C@@H]1O[C@H](CNS(=O)(=O)c2ccc(Br)c([N+](=O)[O-])c2)[C@@H](O)[C@H]1O	3410 nM	54%	33.8%	78.1%	57%	–	–	–	–	–	–	–
COc1ccc(S(=O)(=O)N(C)C[C@H]2O[C@@H](n3cc(C#Cc4ccccc4)c4c(N)ncnc43)[C@H](O)[C@@H]2O)cc1[N+](=O)[O-]	2.8 nM	0.5%	0%	91.6%	inactive	Non-Toxic	–	–	–	–	–	inactive
Cc1ccc(S(=O)(=O)N(C)C[C@H]2O[C@@H](n3cc(C#Cc4ccccc4)c4c(N)ncnc43)[C@H](O)[C@@H]2O)cc1[N+](=O)[O-]	9.5 nM	1%	1%	93.3%	inactive	Non-Toxic	–	–	–	–	–	inactive
CCN(C[C@H]1O[C@@H](n2cnc3c(NC)ncnc32)[C@H](O)[C@@H]1O)S(=O)(=O)c1ccc(C)c(Cl)c1	130 nM	10.9%	8.3%	inactive	78%	–	–	–	–	–	–	–
CN(C[C@H]1O[C@@H](n2cc(C#Cc3cnc4ccccc4c3)c3c(N)ncnc32)[C@H](O)[C@@H]1O)S(=O)(=O)c1ccc(Br)c([N+](=O)[O-])c1	3.5 nM	5.5%	5.4%	inactive	52.3%	Non-Toxic	50%	–	–	–	–	–
CCN(C[C@H]1O[C@@H](n2cnc3c(NC)ncnc32)[C@H](O)[C@@H]1O)S(=O)(=O)c1ccc(C)c([N+](=O)[O-])c1	187 nM	20.1%	10.9%	97.1%	inactive	–	–	–	–	–	–	–
CCN(C[C@H]1O[C@@H](n2cnc3c(=O)[nH]cnc32)[C@H](O)[C@@H]1O)S(=O)(=O)c1ccc(Cl)c(C)c1	–	91%	75.5%	inactive	inactive	–	–	–	–	–	–	–
